According to patent US20200155555A1, “VITAMIN RECEPTOR DRUG DELIVERY CONJUGATES FOR TREATING INFLAMMATION” (Endocyte, Inc., priority 2007, published 2020):
Values joined by “and” are separate entries in the source; they are usually repeats but may differ in a detail not shown here. Identical values can stand only once.

Tests used:
[1] = Plasma pharmacokinetics after a single s.c. dose of EC0746 or aminopterin
Experimental: Female Lewis rats with rounded tip jugular vein catheters (Harlan) were fed regular rodent diet and used in this study. The animals were given a single subcutaneous dose of EC0746 at 500 nmol/kg. Whole blood samples (300 μl) were collected from the animals at the following time points: 1 min, 10 min, 30 min, 1 h, 2 h, 3 h, 4 h, and 8 h after injection. The blood samples were placed into anti-coagulant tubes containing 1.7 mg/mL of K3-EDTA and 0.35 mg/mL of N-Maleoyl-beta-alanine (0.35 mg/mL). Plasma samples were obtained by centrifugation for 3 min at ˜2,000 g and stored at −80° C. The amount of EC0746 and its released base drugs (EC0470 & aminopterin) were determined by HPLC using the EC0746 injection solution as the standard (see FIG. 14). […] A similar method was used to determine the plasma pharmacokinetics of aminopterin (see FIG. 15).
Thus, the plasma concentrations of EC0746 and two primary metabolites, AMT and AMT hydrazide, were determined by LC/MS/MS after a single subcutaneous EC0746 administration. […] For comparison, the pharmacokinetics of subcutaneously dosed AMT (500 nmol/kg) was also examined (FIG. 33B).

RAW264.7 cells = assay: XTT cell viability / proliferation assay; assay type: cell-based, murine
Experimental: After 2 h incubation, the drug-containing media were replaced and the cells were allowed to incubate further for 70 h. Four hours prior to the end of incubation, LPS was added to the treated cells at a final concentration of 100 ng/mL. 100 μL of the culture supernatants were collected for TNF-α analysis using a commercial ELISA kit.
RAW264.7 cells in 96-well plates were treated with vehicle (culture medium) or 10-fold serial dilutions of EC0932 without or with 100-fold excess free folate. The drug-containing medium was replaced after 2 h treatment and the cells were allowed to incubate further in standard medium for 70 h. Four hours prior to the end of incubation, LPS was added to the treated cells at a final concentration of 100 ng/mL. […] The cell viability was assessed by adding XTT (2,3-bis(2-methoxy-4-nitro-5-sulfo-phenyl)-2H-tetrazolium-5-carboxanilide) to the remaining medium for an additional 4 h following the manufacturer's instructions (Roche Applied Science, Indianapolis, Ind.).
At 4 h before the end of incubation, LPS (100 ng/ml) was added to the culture medium to stimulate cytokine production.

[2] = test system: rats with adjuvant-induced arthritis (AIA); assay: Adjuvant-induced arthritis (AIA) model; settings: for Splenomagly (% increase in spleen weight relative to healthy rats) / % Inhibition in paw edema / % Weight loss: AIA rats; for % Weight loss: Day 24 relative to first day of treatment
Experimental: Female Lewis rats were fed a folate-deficient diet (Harlan Teklad, Indianapolis, Ind.) for 9-10 days prior to arthritis induction. The adjuvant-induced arthritis (AIA) was induced by intradermal inoculation (at the base of tail) of 0.5 mg of heat-killed Mycobacteria butyricum (BD Diagnostic Systems, Sparks, Md.) in 100 μL light mineral oil (Sigma). Ten days after arthritis induction, paw edema in rats was assessed using a modified arthritis scoring system: 0=no arthritis; 1=swelling in one type of joint; 2=swelling in two types of joint; 3=swelling in three types of joint; 4=swelling of the entire paw. A total score for each rat is calculated by summarizing the scores for each of the four paws, giving a maximum score of 16 for each rat. On Day 10 post arthritis induction, rats with a total arthritis score of ≥2 were removed from the study and the remaining rats were distributed evenly across the control and treatment groups (n=5 for all groups except that n=2-3 for healthy controls). All treatments started on Day 10 unless mentioned otherwise. […]
Rats with adjuvant arthritis were treated subcutaneously with EC0932 (250 nmol/kg) in the absence or presence of 500-fold excess of EC0923 (125 μmol/kg) on days 10, 13, 17, and 20 post arthritis induction. The animals in the healthy and arthritis control groups were left untreated. The arthritis scores and animal body weights were recorded three times a week (see FIG. 19A, B). At the completion of study (day 24), the rats were euthanized by CO2 asphyxiation and processed for paw and spleen weights (see FIG. 20A, B).
The rat adjuvant induced arthritis (AIA) model resembles the characteristics of RA in humans and has been widely used to study the impact of novel anti-inflammatory agents.

[3] = Maximum tolerated dose (MTD) in healthy folate-deficient rats; assay type: in vivo
Experimental: Healthy rats were administered a subcutaneous injection of the indicated dose of aminopterin or EC0746 biweekly for 2 weeks; control animals, no treatment, 100 nmole/kg aminopterin, 50 nmole/kg aminopterin, 500 nmole/kg EC0746, or 2000 nmole/kg EC0746. The animals were weighed daily. See FIG. 16A, B. A dose of 0.1 μmol/kg of aminopterin in folate deficient rats is above the MTD; therefore, the projected MTD of EC0746 would be <0.5 μmol/kg based solely on ˜20% free drug release shown in the previous Example. However, the MTD of EC0746 is actually 2.0 μmol/kg, which is equivalent to 0.4 μmol/kg, or—8× higher than the MTD for free aminopterin. On a molar basis for total aminopterin, the MTD is 40× higher. The therapeutic index (MTD for healthy animals/ED50 for treatment of adjuvant-induced arthristis in female Lewis rats) for EC746 is about 9.5 (2000/210).
Since the toxicity of antifolates can be easily masked by rodent diets enriched with folate, healthy rats on a folate-deficient diet (Harlan) were used to determine the maximum-tolerated-dose levels (MTD) of EC0746, AMT and MTX. The animals were given biweekly injections of EC0746, AMT, and MTX for two weeks. The MTD dose was defined as the dose that had caused at least 13-14% weight loss combined with clinical signs of stress and at least one animal in the >MTD dose group needed to be euthanized. Standard hematologic and blood chemistry parameters were examined as needed along with histopathology. The MTDs of EC0746, MTX and AMT were determined to be 2000, 1000, and 50 nmol/kg, respectively. At above the MTD dose level, the main toxicities of EC0746 were similar to those of AMT and MTX, including manifested gastrointestinal distress (diarrhea), swollen muzzle, immunosuppression (bone marrow, thymus), low white-blood-cell count, low platelet count, and infections. […] Overall, EC0746 was approximately 40-fold less toxic than AMT and 2-fold less toxic than MTX on an equimolar basis in these folate-deficient animals; however, its toxicity profile at above MTD levels was not dissimilar from that of AMT and MTX.

[4] = target: folate-receptor-beta positive CHO-FR-β cells (Homo sapiens, UniProt P14207); settings: displacement of 3H-folic acid
[5] = target: folate receptors (FR-α) of KB cells (Homo sapiens, UniProt P15328); settings: competitive binding with 3H-folic acid, FR-α positive KB cells
[6] = etanercept s.c. 10 mg/kg once every 3 days
[7] = single sc dose of EC0746, 500 nmole/kg, rats

folate receptors (FR-α) of KB cells, sequence (P15328 25-234): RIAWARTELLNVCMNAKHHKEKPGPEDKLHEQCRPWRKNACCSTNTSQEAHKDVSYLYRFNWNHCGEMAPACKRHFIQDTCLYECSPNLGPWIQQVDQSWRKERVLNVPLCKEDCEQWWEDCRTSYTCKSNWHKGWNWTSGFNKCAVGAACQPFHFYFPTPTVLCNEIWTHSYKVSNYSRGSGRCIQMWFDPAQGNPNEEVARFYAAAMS
folate-receptor-beta positive CHO-FR-β cells, sequence (P14207 17-230): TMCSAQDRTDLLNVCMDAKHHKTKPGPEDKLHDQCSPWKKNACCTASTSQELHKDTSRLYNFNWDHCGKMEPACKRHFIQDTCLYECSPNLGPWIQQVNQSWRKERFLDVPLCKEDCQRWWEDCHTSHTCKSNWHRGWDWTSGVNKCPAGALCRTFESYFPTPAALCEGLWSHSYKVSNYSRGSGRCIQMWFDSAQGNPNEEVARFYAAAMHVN

## NNC(=O)CC[C@H](NC(=O)c1ccc(NCc2cnc3nc(N)nc(N)c3n2)cc1)C(=O)O [EC0470, aminopterin gamma-hydrazide]
[1]; EC0746-dosed rats, sc 500 nmol/kg
  delay of peak plasma appearance from the EC0746 Cmax: 30 min
[1]; after single sc dose of EC0746, 500 nmol/kg, rats
  Tmax of released base drug in plasma: ~60 min
RAW264.7 cells; 72 h incubations of RAW264.7 macrophages
  potency on cell proliferation and LPS-stimulated TNF-α production: equally potent

## etanercept
[2]; sc, 10 mg/kg q3d
  Splenomagly (% increase in spleen weight relative to healthy rats): 42 ± 7%
  % Weight loss: −15 ± 2%
[2]; sc, 10 mg/kg q3d, Day 24
  % Inhibition in paw edema: 46 ± 9%
[2]; [6]
  decrease in dorsal to ventral paw thickness: 40%
  decrease in summed histological score: 43%
  reduction in bone resorption (histology): 55%
  reduction in inflammation (histology): 42%

## N=c1[nH]c(N)nc2ncc(CNc3ccc(C(=O)N[C@@H](CCC(=O)NNC(=O)OCCSSC[C@H](NC(=O)[C@H](CCC(=O)NC[C@H](O)[C@@H](O)[C@H](O)[C@H](O)CO)NC(=O)[C@H](CCC(=O)O)NC(=O)[C@H](CCC(=O)NC[C@H](O)[C@@H](O)[C@H](O)[C@H](O)CO)NC(=O)[C@H](CCC(=O)O)NC(=O)[C@H](CCC(=O)NC[C@H](O)[C@@H](O)[C@H](O)[C@H](O)CO)NC(=O)CC[C@H](NC(=O)c4ccc(NCc5cnc6nc(N)[nH]c(=O)c6n5)cc4)C(=O)O)C(=O)O)C(=O)O)cc3)nc12 [EC0746]
[3]; 2000/210
  therapeutic index (MTD for healthy animals/ED50 in AIA): about 9.5
[3]; rat, in vivo
  MTD relative to MTD for free aminopterin, based on ~20% free drug release (0.4 μmol/kg equivalent): 8 ×
  MTD relative to free aminopterin on a molar basis for total aminopterin: 40 ×
[3]; rats
  gastrointestinal-associated toxicities at MTD dose: showed less gastrointestinal-associated toxicities than AMT and MTX
[1]; rats
  bioavailability after subcutaneous administration: bioavailable after subcutaneous administration
[1]; single sc dose of EC0746, 500 nmol/kg, rats
  elimination half-life of EC0746: ~35 min
[1]; [7]
  Area Under Curve for free drug (aminopterin+aminopterin hydrazide): 7.3 nmol·min/mL
  Cmax for free drug (aminopterin+aminopterin hydrazide): 34 nM
  Cmax for free drug as % of the total dose: 9.6%
  time of Cmax for free drug (aminopterin+aminopterin hydrazide): 60 min
[4]
  Relative affinity to folate receptors (folic acid set as 1): 0.27
[5]
  Relative affinity to folate receptors (folic acid set as 1): 0.5
RAW264.7 cells; 2 h treatment, then 70-72 h in drug-free medium, read-out: EC50 (ED50), viability/proliferation of RAW264.7 cells, XTT assay
  EC50: 0.3 nM and ~0.3 nM

## CN(Cc1cnc2nc(N)nc(N)c2n1)c1ccc(C(=O)N[C@@H](CCC(=O)O)C(=O)O)cc1 [methotrexate]
[2]; oral, 250 nmol/kg biw
  Splenomagly (% increase in spleen weight relative to healthy rats): 42 ± 17%
  % Weight loss: −14 ± 2%
[2]; oral, 250 nmol/kg biw, Day 24
  % Inhibition in paw edema: 70 ± 5%
[2]; oral, 1650 nmol/kg qw
  % Weight loss: −10 ± 2%
[2]; oral, 1650 nmol/kg qw, calculated based on arthritis scores on Day 24
  % Inhibition in paw edema: 47 ± 10 %
[2]; sc, 250 nmol/kg biw
  Splenomagly (% increase in spleen weight relative to healthy rats): 24 ± 3%
  % Weight loss: −2 ± 4%
[2]; sc, 250 nmol/kg biw, Day 24
  % Inhibition in paw edema: 78 ± 10%
[2]; sc, 500 nmol/kg biw
  Splenomagly (% increase in spleen weight relative to healthy rats): 20 ± 4%
  % Weight loss: −2 ± 7%
[2]; sc, 500 nmol/kg biw, Day 24
  % Inhibition in paw edema: 88 ± 7%
[2]; oral MTX 250 nmol/kg biweekly
  decrease in dorsal to ventral paw thickness: 63%
  decrease in summed histological score: 73%
  reductions in all scored histology parameters vs untreated controls: 66-84%
[2]; s.c. MTX 250 nmol/kg/dose with 500-fold excess EC0923
  blocking of anti-arthritic activity by folate competitor: not significantly blocked by excess EC0923
[2]; s.c. MTX 250 nmol/kg/dose, 2 weeks
  effect on development and severity of arthritis: significantly improved the development and severity of arthritis
[2]; sc 300 nmol/kg on days 10, 13, 17, 20
  reduction of local (paw) and systemic (spleen) inflammation: similarly active in reducing local (paw) and systemic (spleen) inflammation
[4]
  Relative affinity to folate receptors (folic acid set as 1): 0.005
[5]
  Relative affinity to folate receptors (folic acid set as 1): 0.018

## Nc1nc2ncc(CNc3ccc(C(=O)N[C@@H](CCC(=O)N[C@H](CC(=O)O)C(=O)N[C@H](CC(=O)O)C(=O)O)C(=O)O)cc3)nc2c(=O)[nH]1 [EC0923]
[2]; EC0923 alone, 125 μmol/kg/dose biweekly 2 weeks
  effect on development or severity of AIA: did not have any impact on the development or severity of the disease
[2]; EC0923 alone, 125 μmol/kg/dose biweekly, arthritic control ~9.8, healthy ~5.8
  dorsal to ventral paw thickness: ~9.4 mm
[2]; EC0923 alone, 125 μmol/kg/dose biweekly, arthritic control ~15.3
  mean sum of histology scores (maximum 20): 14.2
[5]
  Relative affinity to folate receptors (folic acid set as 1): 0.84

## Nc1nc(N)c2nc(CNc3ccc(C(=O)N[C@@H](CCC(=O)O)C(=O)O)cc3)cnc2n1 [aminopterin]
[3]; rat, in vivo, folate deficient rats, sc biweekly for 2 weeks
  MTD at 2 weeks: < 0.1 µmol/kg
[2]; AMT mixed with free folic acid (1:1), 500 nmol/kg/dose, biweekly
  lethality to AIA rats: 100%
[1]; rat, in vivo, sc, 500 nmol/kg
  delay of peak plasma appearance from the EC0746 Cmax: 30 min
